Measurements taken from patent US9823260B2, “Method to increase bioavailability of the delta-opioid receptor for management of pain and neuropsychiatric disorders” (priority 2014, dated 2017).
Like-named read-outs stand apart in the source and are kept apart here.

Key:
[1] = system: PC12 cells expressing SSF-DOR; assay: Fixed cell immunofluorescence assay of DOR localization (intracellular/Golgi retention) in PC12 cells expressing SSF-DOR; type: cell-based, rat; conditions: for amount of cells exhibiting intracellular DOR (retention) after inhibitor alone / percentage of cells with internal localization of DOR within the Golgi region: no NGF; for amount of cells exhibiting intracellular DOR (retention) after inhibitor alone: Wortmannin 10 μM, Chelerythrine 5 μM, PP2 10 μM, Akt ½ kinase inhibitor 1 μM; for percentage of cells with internal localization of DOR within the Golgi region: PI3K inhibitor 10 μM alone
Excerpt: PC12 cells undergo neuronal specific signaling and differentiation in response to NGF.
To determine the mechanism regulating NGF-induced DOR retention, pharmacologic inhibition of known NGF-TrkA signaling molecules and quantification of the DOR localization via fixed cell immunofluorescence were employed. […]
Alternatively, it was chosen to use the neuroendocrine PC12 cell line as the model system.
To confirm that the NGF-induced internal localization is retention and not only due to increased protein production in response to NGF, the mechanistic evaluation was continued in the presence of Cycloheximide (CHX, 3 μg/mL) to inhibit new protein synthesis. […] Again referring to FIG. 3, for the evaluation of required downstream signaling targets, pharmacologic inhibition of TrkA effectors was performed to determine the pathway required for NGF-induced retention of DOR.
It was therefore sought to determine if inhibition of PI3K via treatment with Wortmannin alone was sufficient to induce intracellular retention of DOR using a fixed cell immunofluorescence assay.

[2] = system: SSF-MOR expressed in PC12 cells; assay: Fixed cell immunofluorescence assay of MOR localization in PC12 cells expressing SSF-MOR; type: cell-based, rat; conditions: 1-hour; NGF 100 ng/mL, Wortmannin 10 μM, LY294002 10 μM
Experimental: Previously, it was shown that the NGF-induced retention is specific to DOR and has minimal effect on MOR^37. It was therefore asked if retention of DOR via PI3K inhibition was also specific to DOR. To determine this specificity, the sufficiency of NGF, and PI3K inhibition by Wortmannin or LY294002, to promote intracellular retention of SSF-MOR expressed in PC12 cells was evaluated using the fixed cell immunofluorescence assay. Under basal no treatment conditions, SSF-MOR was prominently localized to the cell surface. Upon NGF (100 ng/mL), Wortmannin (10 μM), or LY294002 (10 μM) treatment for 1-hour, the majority of the SSF-MOR signal was localization to the cell surface with minimal overlap within the Golgi region.

[3] = system: primary Trigeminal Ganglion (TG) neurons transfected with SSF-DOR; assay: Fixed cell immunofluorescence of DOR localization in primary Trigeminal Ganglion neurons transfected with SSF-DOR; type: cell-based, mice
Excerpt: To begin the example, confirmation that SSF-DOR was internally retained and localized with the Golgi complex in primary Trigeminal Ganglion (TG) sensory neurons was desired. First, primary TGs from adult mice were isolated and cultured. The SSF-DOR DNA construct was then transiently transfected into cultured TGs for subsequent localization analysis. Using a fixed-cell immunofluorescence assay, the location of SSF-DOR with an Alexa-488 conjugated anti-Flag M1 antibody was visualized, and the receptor signal was compared to an antibody against the Golgi marker GPP130. […] PC12 cells expressing SSF-DOR have a membrane localized expression pattern with little to no Golgi colocalization when analyzed via fixed cell fluorescence confocal microscopy. […]
By using the neuroendocrine PC12 cell line as our model system, PTEN inhibition was identified as a tool to prevent the internal retention of DOR following NGF administration. […] Graphical quantification of the percentage of DOR localized within the Golgi compared to the total cell DOR fluorescence is shown in FIG. 9 (top), and the Pearson's Correlation Coefficient between the DOR fluorescence and the GPP130 Golgi fluorescence in FIG. 9 (bottom).

[4] = system: SSF-DOR expressing PC12 cells; assay: Fluorescence antibody internalization assay of the surface pool of DOR; type: cell-based, rat; conditions: 1-hour treatment; NGF 100 ng/mL, Wortmannin 10 μM, LY294002 10 μM, 740Y^PDGFR 25 μg/mL, DADLE 10 μM
Experimental: To eliminate the possibility that surface localized DOR was being actively internalized following PI3K inhibition, a fluorescence antibody internalization assay was performed in combination with pharmacologic inhibition of PI3K. SSF-DOR expressing PC12 cells were incubated with a cell-impermeable primary M1-Alexa 647 conjugated antibody to label the surface pool of receptors. The cells were treated with pharmacologic agents for 1 hour as in previous experiments, and receptor internalization was determined by adding a cell-impermeable secondary Alexa-488 conjugated antibody that recognizes the M1 primary antibody. The amount of internalization is quantified using a Pearson's Correlation Coefficient to determine the colocalization of the primary and secondary antibodies.

[5] = system: DOR; assay: cAMP EPAC FRET biosensor assay of DOR signaling in live PC12 cells; type: cell-based, rat
[6] = with NGF and CHX, Y-27632 5 μM, U0126 10 μM, Akt1/2 Kinase Inhibitor 500 nM, U73122 10 μM, Chelerythrine 10 μM, PP2 500 nM

Molecule: CC(C)(C)n1nc(-c2ccc(Cl)cc2)c2c(N)ncnc21 [PP2]
- amount of cells exhibiting intracellular DOR (retention) after inhibitor alone [1]: did not significantly increase
- effect on NGF-induced retention of DOR [1, 6]: no statistical effect

Molecule: NGF: Nerve Growth Factor; initiates internal retention of DOR in PC12 cells via TrkA
- percentage of cells with internal localization of DOR colocalized with the Golgi ([1]; NGF 100 ng/mL, 1 hour (FIG. 3 right)): 80%
- percentage of transfected cells with internal localization of DOR ([1]; NGF 100 ng/mL, 1 hour, no CHX): 90%
- percentage of cells imaged with internal localization of DOR ([1]; NGF added 1 hour before CHX addition and chased for 1 hour): 80%
- change in intracellular retention of MOR (percentage of cells with Golgi localized MOR and percentage of MOR fluorescence within the Golgi) [2]: non-significant change
- colocalization between DOR and GPP130 Golgi marker (Pearson's Correlation Coefficient) ([3]; NGF treatment): significant increase in colocalization
- colocalization of primary and secondary antibody (Pearson's Correlation Coefficient; internalization of surface DOR) [4]: very strong colocalization

Molecule: COC[C@H]1OC(=O)c2coc3c2[C@@]1(C)C1=C(C3=O)[C@@H]2CCC(=O)[C@@]2(C)C[C@H]1OC(C)=O [Wortmannin]
- percentage of cells with internal localization of DOR ([1]; NGF 100 ng/ml and Wortmannin 10 μM): 87%
- percentage of cells with internal localization of DOR within the Golgi region [1]: 88%
- percentage of cells with intracellular retention of DOR ([1]; Wortmannin 10 μM in combination with NGF, 1-hour CHX chase): 97%

Molecule: C[C@@H]1C[C@@H]([C@H](O)CC2CC(=O)NC(=O)C2)C(=O)[C@@H](C)C1 [CHX, Cycloheximide]
- percentage of SSF-DOR expressing PC12 cells with internal localization of DOR ([1]; CHX 3 μg/mL alone, 1 hour): 16%

Molecule: COc1ccc2c(c[n+](C)c3c4cc5c(cc4ccc23)OCO5)c1OC [Chelerythrine]
- amount of cells exhibiting intracellular DOR (retention) after inhibitor alone [1]: did not significantly increase
- effect on NGF-induced retention of DOR [1, 6]: no statistical effect

Molecule: C[C@@H](N)[C@H]1CC[C@H](C(=O)Nc2ccncc2)CC1 [Y-27632]
- effect on NGF-induced retention of DOR [1, 6]: no statistical effect

Molecule: CC(C)C[C@@H](NC(=O)[C@H](Cc1ccccc1)NC(=O)CNC(=O)[C@@H](C)NC(=O)[C@@H](N)Cc1ccc(O)cc1)C(=O)O [DADLE]
- inhibition of Forskolin induced cAMP by DADLE ([5]; 1 hour NGF pretreatment, Forskolin 5 μM, DADLE 10 μM): 81%
- colocalization of primary and secondary antibody (Pearson's Correlation Coefficient; internalization of surface DOR) [4]: minimal antibody colocalization

Molecule: O=c1cc(N2CCOCC2)oc2c(-c3ccccc3)cccc12 [LY294002]
- percentage of cells with internal localization of DOR within the Golgi region [1]: 88%

Molecule: O=C(NCc1c(F)cccc1F)c1sccc1OCc1ccc(Cl)cc1Cl [AS1938909]
- DOR retention in combination with NGF versus NGF treatment alone [1]: not significantly different
- percentage of cells exhibiting Golgi localized DOR and percentage of DOR fluorescence within the Golgi ([1]; SHIP2 inhibitor AS1938909 10 μM only): significant increase

Molecule: COc1ccc2c(c1)CC[C@@H]1[C@@H]2CC[C@]2(C)[C@@H](NCCCCCCN3C(=O)C=CC3=O)CC[C@@H]12 [U73122]
- effect on NGF-induced retention of DOR [1, 6]: no statistical effect

Molecule: CC(C)(C)C(=O)Nc1ccc2c(c1)C(=O)C(=O)c1ccccc1-2 [SF1670]
- effect of PTEN inhibitor on NGF-induced retention of DOR ([1]; with NGF 100 ng/mL, bpV(HOptic) 10 μM): prevented NGF-induced retention of DOR in a dose dependent manner
- inhibition of cAMP upon DADLE treatment after CNA blockade and PTEN inhibition ([5]; NGF pre-treatment, CNA blockade, SF1670 10 μM, Forskolin, DADLE): 80%
- increase of cAMP inhibition over that obtained after CNA alone ([5]; SF1670 10 μM after CNA versus CNA alone): 61%
- percentage of DOR fluorescence localized with the Golgi compared to the total DOR fluorescence ([3]; SF1670 alone and in combination with NGF): decreased significantly

Molecule: N#CC(=C(/N)Sc1ccccc1N)/C(C#N)=C(\N)Sc1ccccc1N [U0126]
- effect on NGF-induced retention of DOR [1]: no statistical effect

Molecule: O=c1[nH]c2ccccc2n1C1CCN(Cc2ccc(-c3nc4cc5nc[nH]c5cc4nc3-c3ccccc3)cc2)CC1 [Akt1/2 Kinase Inhibitor]
- amount of cells exhibiting intracellular DOR (retention) after inhibitor alone [1]: did not significantly increase
- effect on NGF-induced retention of DOR [1, 6]: no statistical effect
